US10471046B2, “Method for treating, preventing, or reducing the risk of skin infection” (Melinta Subsidiary Corp., priority 2014, dated 2019)
In brackets after ≈: the same amount, converted by molar mass.

Tested on: S. aureus
Assay: Minimum inhibitory concentrations (MICs) for S. aureus of exemplary compounds (Table 2)
Format: cell-based
Settings: Staphylococcus aureus, minimum inhibitory concentrations for S. aureus; read-out: MICs
Procedure, shortened: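 Growth of S. aureus in media with or without compound, by broth microdilution in microtiter trays following NCCLS M7-A5 guidelines. Values are MICs in μg/mL.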

Row | SMILES | MIC [µg/mL]
1 | CC(=O)NC[C@H]1CN(c2ccc(-c3ccc(CNCc4c[nH]c(-c5ccccc5)n4)cc3)c(F)c2)C(=O)O1 [Compound 4123, N-[3-(2-Fluoro-4′-{[(2-phenyl-1H-imidazol-4-ylmethyl)-amino]-methyl}-biphenyl-4-yl)-2-oxo-oxazolidin-5-(S)-ylmethyl]-acetamide] | 16 (≈ 31.2 µM)
2 | CCc1ncc(CNCc2ccc(-c3ccc(N4C[C@H](CNC(C)=O)OC4=O)cc3F)cc2)[nH]1 [Compound 4124, N-[3-(4′-{[(2-Ethyl-3H-imidazol-4-ylmethyl)-amino]-methyl}-2-fluoro-biphenyl-4-yl)-2-oxo-oxazolidin-5-(S)-ylmethyl]-acetamide] | 16 (≈ 34.4 µM)
3 | CC(=O)NC[C@H]1CN(c2ccc(-c3ccc(CNCc4c(N)oc5ccccc5c4=O)cc3)c(F)c2)C(=O)O1 [Compound 4129, N-[3-(4′-{[(2-Amino-4-oxo-4H-chromen-3-ylmethyl)-amino]-methyl}-2-fluoro-biphenyl-4-yl)-2-oxo-oxazolidin-5-(S)-ylmethyl]-acetamide] | 4 (≈ 7.54 µM)
4 | CC(=O)NC[C@H]1CC(c2ccc(-c3ccc(CNCc4ccncc4)cc3)cc2)=NO1 [Compound 4132, N-[3-(4′-{[(Pyridin-4-ylmethyl)-amino]-methyl}-biphenyl-4-yl)-4,5-dihydro-isoxazol-5-(R)-ylmethyl]-acetamide] | 4 (≈ 9.65 µM)
5 | CC(=O)NC[C@H]1CC(c2ccc(-c3ccc(CNCc4ccncc4)cc3)nc2)=NO1 [Compound 4133, N-{3-[6-(4-{[(Pyridin-4-ylmethyl)-amino]-methyl}-phenyl)-pyridin-3-yl]-4,5-dihydro-isoxazol-5-(R)-ylmethyl}-acetamide] | 128 (≈ 308 µM)
6 | CC(=O)NC[C@H]1CN(c2ccc(-c3ccc(CNCc4ccncc4)cc3)nc2)C(=O)O1 [Compound 4134, N-{2-Oxo-3-[6-(4-{[(pyridin-4-ylmethyl)-amino]-methyl}-phenyl)-pyridin-3-yl]-oxazolidin-5-(S)-ylmethyl}-acetamide] | 16 (≈ 37.1 µM)
7 | CC(=O)NC[C@H]1CN(c2ccc(-c3ccc(CNCc4cnccc4N)cc3)c(F)c2)C(=O)O1 [Compound 4135, N-[3-(4′-{[(4-Amino-pyridin-3-ylmethyl)-amino]-methyl}-2-fluoro-biphenyl-4-yl)-2-oxo-oxazolidin-5-(S)-ylmethyl]-acetamide] | 4 (≈ 8.63 µM)
8 | CC(=O)NC[C@H]1CN(c2ccc(-c3ccc(CNS(=O)(=O)CCN4C(=O)c5ccccc5C4=O)cc3)c(F)c2)C(=O)O1 [Compound 4136, N-[3-(4′-{[2-(1,3-Dioxo-1,3-dihydro-isoindol-2-yl)-ethanesulfonylamino]-methyl}-2-fluoro-biphenyl-4-yl)-2-oxo-oxazolidin-5-(S)-ylmethyl]-acetamide] | 8 (≈ 13.5 µM)
9 | CC(=O)NC[C@H]1CN(c2ccc(-c3ccc(CNCc4nc(C)no4)cc3)c(F)c2)C(=O)O1 [Compound 4140, N-[3-(2-Fluoro-4′-{[(3-methyl-[1,2,4]oxadiazol-5-ylmethyl)-amino]-methyl}-biphenyl-4-yl)-2-oxo-oxazolidin-5-(S)-ylmethyl]-acetamide] | 2 (≈ 4.41 µM)
10 | CC(=O)NC[C@H]1CN(c2ccc(-c3ccc(CNCc4noc(C)n4)cc3)c(F)c2)C(=O)O1 [Compound 4141, N-[3-(2-Fluoro-4′-{[(5-methyl-[1,2,4]oxadiazol-3-ylmethyl)-amino]-methyl}-biphenyl-4-yl)-2-oxo-oxazolidin-5-(S)-ylmethyl]-acetamide] | 2 (≈ 4.41 µM)
11 | CC(=O)NC[C@H]1CN(c2ccc(-c3ccc(CNC(=O)c4ccncc4)cc3)c(F)c2)C(=O)O1 [Compound 4142, N-{4′-[5-(S)-(Acetylamino-methyl)-2-oxo-oxazolidin-3-yl]-2′-fluoro-biphenyl-4-ylmethyl}-isonicotinamide] | 2 (≈ 4.32 µM)
12 | CC(=O)NC[C@H]1CN(c2ccc(-c3ccc(CNCc4nn(-c5ccccc5)nc4C)cc3)c(F)c2)C(=O)O1 [Compound 4146, N-[3-(2-Fluoro-4′-{[(5-methyl-2-phenyl-2H-[1,2,3]triazol-4-ylmethyl)-amino]-methyl}-biphenyl-4-yl)-2-oxo-oxazolidin-5-(S)-ylmethyl]-acetamide] | 4 (≈ 7.57 µM)
13 | CC(=O)NC[C@H]1CN(c2ccc(-c3ccc(CNCc4ccc(-n5cccc5)cc4)cc3)c(F)c2)C(=O)O1 [Compound 4147, N-(3-{2-Fluoro-4′-[(4-pyrrol-1-yl-benzylamino)-methyl]-biphenyl-4-yl}-2-oxo-oxazolidin-5-(S)-ylmethyl)-acetamide] | 4 (≈ 7.8 µM)
14 | CC(=O)NC[C@H]1CN(c2ccc(-c3ccc(CNCCCc4cn[nH]c4C)cc3)c(F)c2)C(=O)O1 [Compound 4148, N-[3-(2-Fluoro-4′-{[3-(5-methyl-1H-pyrazol-4-yl)-propylamino]-methyl}-biphenyl-4-yl)-2-oxo-oxazolidin-5-(S)-ylmethyl]-acetamide] | 2 (≈ 4.17 µM)
15 | COc1ncccc1CNCc1ccc(-c2ccc(N3C[C@H](CNC(C)=O)OC3=O)cc2F)cc1 [Compound 4151, N-[3-(2-Fluoro-4′-{[(2-methoxy-pyridin-3-ylmethyl)-amino]-methyl}-biphenyl-4-yl)-2-oxo-oxazolidin-5-(S)-ylmethyl]-acetamide] | 2 (≈ 4.18 µM)
16 | CC(=O)NC[C@H]1CN(c2ccc(-c3ccc(CNCc4cccnc4N)cc3)c(F)c2)C(=O)O1 [Compound 4152, N-[3-(4′-{[(2-Amino-pyridin-3-ylmethyl)-amino]-methyl}-2-fluoro-biphenyl-4-yl)-2-oxo-oxazolidin-5-(S)-ylmethyl]-acetamide] | 2 (≈ 4.31 µM)
17 | CC(=O)NC[C@H]1CN(c2ccc(-c3ccc(CNCc4ccncc4)c(F)c3)c(F)c2)C(=O)O1 [Compound 4155, N-[3-(2,3′-Difluoro-4′-{[(pyridin-4-ylmethyl)-amino]-methyl}-biphenyl-4-yl)-2-oxo-oxazolidin-5-(S)-ylmethyl]-acetamide] | 2 (≈ 4.29 µM)
18 | CC(=O)NC[C@H]1CN(c2ccc(-c3ccc(CNCCCN4CCCC4=O)cc3)c(F)c2)C(=O)O1 [Compound 4156, N-[3-(2-Fluoro-4′-{[3-(2-oxo-pyrrolidin-1-yl)-propylamino]-methyl}-biphenyl-4-yl)-2-oxo-oxazolidin-5-(S)-ylmethyl]-acetamide] | 16 (≈ 33.2 µM)

Now from value to compound:

Row | MIC [µg/mL] | SMILES
19 | 0.5 (≈ 0.903 µM) | CC(=O)NC[C@H]1CN(c2ccc(-c3ccc(CNCc4c(C(F)(F)F)nn(C)c4Cl)cc3)c(F)c2)C(=O)O1 [Compound 4125, N-[3-(4′-{[(5-Chloro-1-methyl-3-trifluoromethyl-1H-pyrazol-4-ylmethyl)-amino]-methyl}-2-fluoro-biphenyl-4-yl)-2-oxo-oxazolidin-5-(S)-ylmethyl]-acetamide]
20 | 0.5 (≈ 1 µM) | CC(=O)NC[C@H]1CN(c2ccc(-c3ccc(CNCc4c(C)nn(C)c4Cl)cc3)c(F)c2)C(=O)O1 [Compound 4126, N-[3-(4′-{[(5-Chloro-1,3-dimethyl-1H-pyrazol-4-ylmethyl)-amino]-methyl}-2-fluoro-biphenyl-4-yl)-2-oxo-oxazolidin-5-(S)-ylmethyl]-acetamide]
21 | 0.5 (≈ 0.962 µM) | CC(=O)NC[C@H]1CN(c2ccc(-c3ccc(CNCc4c[nH]nc4-c4cccs4)cc3)c(F)c2)C(=O)O1 [Compound 4127, N-[3-(2-Fluoro-4′-{[(3-thiophen-2-yl-1H-pyrazol-4-ylmethyl)-amino]-methyl}-biphenyl-4-yl)-2-oxo-oxazolidin-5-(S)-ylmethyl]-acetamide]
22 | 0.5 (≈ 0.962 µM) | CSc1nc(CNCc2ccc(-c3ccc(N4C[C@H](CNC(C)=O)OC4=O)cc3F)cc2)ccc1C#N [Compound 4128, N-[3-(4′-{[(5-Cyano-6-methylsulfanyl-pyridin-2-ylmethyl)-amino]-methyl}-2-fluoro-biphenyl-4-yl)-2-oxo-oxazolidin-5-(S)-ylmethyl]-acetamide]
23 | 2 (≈ 3.79 µM) | CC(=O)NC[C@H]1CN(c2ccc(-c3ccc(CNCc4cc(-c5ccccc5)oc4C)cc3)c(F)c2)C(=O)O1 [Compound 4130, N-[3-(2-Fluoro-4′-{[(2-methyl-5-phenyl-furan-3-ylmethyl)-amino]-methyl}-biphenyl-4-yl)-2-oxo-oxazolidin-5-(S)-ylmethyl]-acetamide]
24 | 1 (≈ 2.21 µM) | CC(=O)NC[C@H]1CN(c2ccc(-c3ccc(CNCC4CCC=CO4)cc3)c(F)c2)C(=O)O1 (stereo partly drawn) [Compound 4131, N-[3-(4′-{[(3,4-Dihydro-2H-pyran-2-ylmethyl)-amino]-methyl}-2-fluoro-biphenyl-4-yl)-2-oxo-oxazolidin-5-(S)-ylmethyl]-acetamide]
25 | 0.5 (≈ 1.1 µM) | CC(=O)NC[C@H]1CN(c2ccc(-c3ccc(CNCc4cccs4)cc3)c(F)c2)C(=O)O1 [Compound 4137, N-[3-(2-Fluoro-4′-{[(thiophen-2-ylmethyl)-amino]-methyl}-biphenyl-4-yl)-2-oxo-oxazolidin-5-(S)-ylmethyl]-acetamide]
26 | 1 (≈ 2.01 µM) | CC(=O)NC[C@H]1CN(c2ccc(-c3ccc(CNCc4ccc5cccnc5c4)cc3)c(F)c2)C(=O)O1 [Compound 4138, N-[3-(2-Fluoro-4′-{[(quinolin-7-ylmethyl)-amino]-methyl}-biphenyl-4-yl)-2-oxo-oxazolidin-5-(S)-ylmethyl]-acetamide]
27 | 2 (≈ 4.12 µM) | CC(=O)NC[C@H]1CN(c2ccc(-c3ccc(CNCc4nn(C)cc4Cl)cc3)c(F)c2)C(=O)O1 [Compound 4139, N-[3-(4′-{[(4-Chloro-1-methyl-1H-pyrazol-3-ylmethyl)-amino]-methyl}-2-fluoro-biphenyl-4-yl)-2-oxo-oxazolidin-5-(S)-ylmethyl]-acetamide]
28 | 1 (≈ 2.13 µM) | CC(=O)NC[C@H]1CN(c2ccc(-c3ccc(C(=O)NCc4nccs4)cc3)c(F)c2)C(=O)O1 [Compound 4143, 4′-[5-(S)-(Acetylamino-methyl)-2-oxo-oxazolidin-3-yl]-2′-fluoro-biphenyl-4-carboxylic acid (thiazol-2-ylmethyl)-amide]
29 | 1 (≈ 2.16 µM) | CC(=O)NC[C@H]1CN(c2ccc(-c3ccc(CCNCc4ccncc4)cc3)c(F)c2)C(=O)O1 [Compound 4149, N-[3-(2-Fluoro-4′-{2-[(pyridin-4-ylmethyl)-amino]-ethyl}-biphenyl-4-yl)-2-oxo-oxazolidin-5-(S)-ylmethyl]-acetamide]
30 | 1 (≈ 2.12 µM) | CC(=O)NC[C@H]1CN(c2ccc(-c3ccc(CNCc4nccs4)c(F)c3)c(F)c2)C(=O)O1 [Compound 4154, N-[3-(2,3′-Difluoro-4′-{[(thiazol-2-ylmethyl)-amino]-methyl}-biphenyl-4-yl)-2-oxo-oxazolidin-5-(S)-ylmethyl]-acetamide]
